The values below are quoted from earlier work in patent US20130095180A1, “TIME-DELAYED SUSTAINED RELEASE PHARMACEUTICAL COMPOSITION COMPRISING DAPOXETINE FOR ORAL ADMINISTRATION” (NAVIPHARM. CO., LTD., priority 2010, published 2013).

By Tmax is commonly meant the time at which the peak concentration occurs.

For the series the following is noted: background characteristics of the drug.
As to `CCCOc1ccc(S(=O)(=O)NCCC2CCCN2C)cc1-c1nc2c(CCC)nn(C)c2c(=O)[nH]1` (centres unmarked) [Udenafil], the “Half Life” value was 7 to 12 h and the time to peak (Tmax) was 1 h. In the case of `CCCc1nc(C)c2c(=O)[nH]c(-c3cc(S(=O)(=O)N4CCN(CC)CC4)ccc3OCC)nn12` [Vardenafil], the “Half Life” value is 4 to 5 h and the Tmax is 0.7 h. Turning to `CN(C)[C@@H](CCOc1cccc2ccccc12)c1ccccc1` [Dapoxetine, (S)-(+)-N,N-dimethyl-1-phenyl-3-(1-Naphthalenyloxy)-propaneamine], the Tmax entry is “about 1 hour”. As to `COc1ccc(CN=c2[nH]c(N3CCC[C@H]3CO)ncc2C(=O)NCc2ncccn2)cc1Cl` [Avanafil], the “Half Life” value was 5 to 11 h and the time to peak (Tmax) was 0.3 to 0.5 h.

On to `CCCc1nn(C)c2c(=O)[nH]c(-c3cc(S(=O)(=O)N4CCN(C)CC4)ccc3OCC)nc12` [Sildenafil], for which the “Half Life” value was 3 to 4 h.
